Tests used:
[1] = CO release from CORM-2 suspension in Na2SO3 solution as a function of ionic strength; assay type: physicochemical; details: n=3
Procedure: Experiments assessing the impact of the release medium on CO release (see FIG. 5A, 5B) were done in comparison to control experiments, within which 12 mg coated Na2SO3 crystals were measured in simulated gastric fluid without enzymes to control for possible detector interference with sulfites (interference was not observed with these experimental conditions; data not shown). Experiments assessing the impact of the coating procedure on CO release were done in comparison to control experiments, within which 3 mg CORM-2 was suspended in 25 mL of 0.333 g/L Na2SO3 solution (see FIG. 6 for results). In another set of control experiments, the impact of the ionic strength of the release medium and the impact of the salt with which the ionic strength was set (using sodium chloride solutions to set ionic strengths of 0.88 mol/L and 1.8 mol/L, respectively, and magnesium chloride to set an ionic strengths of 1.26 mol/L) on CO release was studied using CORM-2 suspensions. For that, CORM-2 was exposed to 25 mL of 0.333 g/L Na2SO3 in the appropriate release medium (for results, see FIG. 7).

[2] = CO release from CORM-2 suspension, amperometric detection in a sealed flask, triggered by Na2SO3; assay type: physicochemical
Description: An Erlenmeyer flask purchased from Gebr. Rettberg (Gottingen, Germany) was used as reaction space. For insertion of the CO sensor and to seal the reaction space, a conically tapered joint from Schott Medica (Wertheim, Germany) was equipped with a glass guide tube for an electric wire. As a prerequisite for cross referencing with calibration gas, a single-bore stopcock was connected to the Erlenmeyer flask as well as to the conically tapered joint. The integrated CO sensor of the “Ei207D” CO detector (Ei Electronics, Shannon, Ireland) was removed and externally connected using a “Wire Wrap” 0.404 mm^2 wire (Kabeltronik, Denkendorf, Germany) linked with a 1.3 mm accessory shoe (Vogt AG, Lostorf, Switzerland). The wire was glued into the guide tube with “UHU plus endfest” epoxide resin (UHU, Bũhl, Germany) to seal the system. On-line videos were collected monitoring the detector with USB webcams with the Eyeline video surveillance software (NCH Software, Canberra, Australia).
The CO release from CORM-2 was triggered by Na2SO3 and amperiometrically detected. For that, 4.3 mg CORM-2 were placed in the Erlenmeyer flask filled with 15 ml Millipore water and stirred at 130 rpm (Variomag Telesystem, Thermo Scientific, MA). After 25 minutes, 10 mg Na2SO3 were added to the reaction space. CO release in ppm as read from the detector of each system was calibrated with 100 ppm CO calibration gas (diluted in air; from Real Gas (Martinsried, Germany) and normalized, accordingly (see FIG. 1 for results).
A concentration series of CO was generated by transferring different amounts of CORM-2 into 25 mL of a stirred (130 rpm) 333 mg/L aqueous Na2SO3 solution. CO release [ppm] after 60-80 minutes was plotted against the amount of CORM-2 [mg] placed into the system. Following this procedure, CO release [ppm] is expressed as amount of CORM-2 [mg], with one CORM-2 equivalent being defined as the amount of CO released per milligram CORM-2 after 60-80 minutes and when exposed to the experimental conditions described in this section (see FIG. 2B for results). CO release from CORM-2 expressed in CORM-2 equivalents [mg] followed a linear pattern (y=0.0192+1.0199x; r^2>0.99; n=1 for 14 independent measurements).
CO data reported in the example is calculated from the corresponding release from CORM-2 equivalents and if reported for CORM-A1, calculated using linear regression. […] Therefore, CO loss by and from the system was quantified and basis for data correction. For the correction, the loss by and from the system was recorded and added to the data as read from the detector (vide infra). For assessment of CO loss and data correction, CO was generated from CORM-2 in presence of Na2SO3 with stirring at 130 rpm, until reaching a value of approximately 800 ppm. At this point the stirring was stopped. CO loss [ppm] was recorded when a value of 720 ppm was reached and followed an exponential decline (y=717.5*e−0.145x; r^2>0.99; n=5; see FIGS. 3A and 3B for results).

[C-]#[O+].[C-]#[O+].[C-]#[O+].[C-]#[O+].[C-]#[O+].[C-]#[O+].[Cl][Ru][Cl].[Cl][Ru][Cl] [CORM-2, Tricarbonyldichlororuthenium(II) dimer]
reduction of CO release ([1]; ionic strength 0.88 mol/L set with NaCl, compared with 0.008 mol/L): 26±9% | reduction of CO release ([1]; ionic strength 1.26 mol/L set with MgCl2): 50±3% | reduction of CO release ([1]; ionic strength 1.8 mol/L set with NaCl): 53±6% | CO release of CORM-2 suspended in water ([2]; 4.3 mg CORM-2 in 15 ml water, before Na2SO3 was added): no detectable CO release | time to complete CO release after Na2SO3 was added ([2]; 10 mg Na2SO3 added after 25 min): ≤ 25 min | CO release reached within the time frame ([2]; 60-80 minutes in 25 mL of 333 mg/L aqueous Na2SO3, stirred at 130 rpm): > 90% | time to half maximal CO release ([2]; CORM-2 suspension control, 3 mg in 25 mL of 0.333 g/L Na2SO3): 20 min | CO release plateau ([2]; after 40 minutes, Na2SO3 triggered): 550 ppm | time at which CO release plateaus (corrected data) ([2]; sulfite triggered, corrected for CO loss): approximately 140 minutes
